# Source: publication PMC9150102 (Journal of Medicinal Chemistry, 2022)
# Where two headings read alike, the source gives them in different places.
# Assays:
# [1] = target: T1, Na^+/K^+ ATPase-alpha1 isoform purified from dog kidneys (Canis lupus familiaris, UniProt P50997); experiment: Na+/K+ ATPase activity inhibition, purified dog kidney enzyme (32P-ATP hydrolysis); type: biochemical
# T1 construct: excised from 1–3-year-old male beagle dogs; from tissue; host or cells: dog (beagle) kidney outer medulla, Jørgensen purification
# Protocol: Compounds were tested in a concentration range from 10^–9 to 10^–4 M on a purified renal Na^+/K^+ ATPase preparation with a specific activity of 14 μmol/min/mg protein.
# Figure 2 Na^+/K^+ ATPase activity inhibition in a dog purified enzyme preparation. All compounds were tested in a concentration range from 10^–9 to 10^–4 M in comparison to ouabain.
# The inhibitory effect of compounds was tested at multiple concentrations on Na^+/K^+ ATPase-alpha1 isoform purified from dog kidneys. […]
# Renal Na+/K+ ATPase purification and activity
# Purification of renal Na+/K+ ATPase was performed according to the method of Jørgensen2. Kidneys were excised from 1–3-year-old male beagle dogs, obtained from the General Pharmacology Department of Sigma-tau, Pomezia, Italy, under pentobarbital anesthesia. Kidneys were sliced and the outer medulla was dissected, pooled and suspended (1g in 10 ml) in a sucrose-histidine solution, containing 250 mM sucrose, 30 mM histidine and 5 mM EDTA, pH 7.2 and homogenized. The homogenate was centrifuged at 6,000 g for 15 min, the supernatant was decanted and centrifuged at 48,000 g for 30 min. The pellet was suspended in the sucrose-histidine buffer and incubated for 20 min with a sodium-dodecyl-sulphate (SDS) solution, dissolved in a gradient buffer, containing 25 mM imidazole and 1 mM EDTA, pH 7.5. The sample was layered on the top of a sucrose discontinuous gradient (10, 15 and 29.4%) and centrifuged at 60,000 g for 115 min. The final pellet was suspended in the gradient buffer.
# Na+/K+ ATPase activity was assayed by measuring 32P-ATP hydrolysis, as previously described3.
# Increasing concentrations of the standard ouabain, or tested compound, were incubated with 0.3 μg of purified dog kidney enzyme for 10 min at 37°C in 120 μl final volume of a medium, containing 140 mM NaCl, 3 mM MgCl2, 50 mM Hepes-Tris, 3 mM ATP, pH 7.5. Then, 10 μl of incubation solution containing 10 mM KCl and 20 nCi of 32P-ATP (3-10 Ci/mmol, Perkin Elmer) were added, the reaction continued for 15 min at 37°C and was stopped by acidification with 20% ice-cold perchloric acid.
# 32P was separated by centrifugation with activated Charcoal (Norit A, Serva) and the radioactivity was measured. Effects of increasing concentrations of the tested compound were compared to ouabain, as positive standard, and to vehicle (control) at 37°C. The inhibitory activity was expressed as percent of activity in control. The concentration of compound causing 50% inhibition of the Na+/K+ ATPase activity (IC50) was calculated by non-linear fitting of data points (KaleidagraphTM, Sinergy Software). […]
# SERCA2a = target: T2, SERCA2a (Cavia porcellus, UniProt A0A286XFU8); experiment: SERCA2a ATPase activity, Ca2+ dependency in cardiac SR microsomes from healthy guinea pigs; type: biochemical, guinea pig; conditions: for SERCA2a–Ca2+ affinity (KdCa) modulation (words): 10 and 100 nM, healthy guinea pig SR preparations
# T2 construct: from tissue; host or cells: guinea pig left ventricle, SR-enriched microsomes
# T2 sequence (A0A286XFU8 entry or part of it): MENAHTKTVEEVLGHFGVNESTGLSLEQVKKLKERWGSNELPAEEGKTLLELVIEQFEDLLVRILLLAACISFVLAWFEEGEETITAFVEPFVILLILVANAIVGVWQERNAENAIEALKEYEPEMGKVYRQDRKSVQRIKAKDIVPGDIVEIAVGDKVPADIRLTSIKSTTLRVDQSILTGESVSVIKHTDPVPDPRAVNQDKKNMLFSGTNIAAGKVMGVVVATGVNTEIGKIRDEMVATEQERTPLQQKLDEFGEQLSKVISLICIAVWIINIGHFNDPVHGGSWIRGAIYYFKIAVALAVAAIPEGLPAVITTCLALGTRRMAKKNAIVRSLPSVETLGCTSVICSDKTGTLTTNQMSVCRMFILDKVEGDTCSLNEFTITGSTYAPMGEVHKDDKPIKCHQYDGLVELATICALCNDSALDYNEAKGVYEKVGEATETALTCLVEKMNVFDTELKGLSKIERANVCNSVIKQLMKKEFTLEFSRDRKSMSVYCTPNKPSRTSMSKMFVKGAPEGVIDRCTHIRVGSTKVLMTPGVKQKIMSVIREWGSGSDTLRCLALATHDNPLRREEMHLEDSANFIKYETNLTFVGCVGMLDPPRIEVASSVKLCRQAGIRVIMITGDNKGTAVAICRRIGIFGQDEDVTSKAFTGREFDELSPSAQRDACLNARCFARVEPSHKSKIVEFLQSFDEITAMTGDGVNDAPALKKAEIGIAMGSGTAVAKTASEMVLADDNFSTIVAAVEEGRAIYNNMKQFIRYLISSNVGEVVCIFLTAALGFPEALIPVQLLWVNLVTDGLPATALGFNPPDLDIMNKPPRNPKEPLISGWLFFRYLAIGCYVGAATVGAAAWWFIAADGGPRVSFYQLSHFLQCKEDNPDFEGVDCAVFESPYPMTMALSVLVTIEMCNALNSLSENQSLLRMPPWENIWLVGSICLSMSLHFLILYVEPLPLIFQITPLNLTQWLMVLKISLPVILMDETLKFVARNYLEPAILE
# Protocol: SERCA2a ATPase activity was assessed in SR preparations from healthy guinea pig hearts. Ca^2+ dependency of ATPase activity was measured, and kinetic parameters (KdCa and Vmax) were estimated at compound concentrations of 10 and 100 nM.
# […] […] Data are the mean ± SEM. *p < 0.05 (one-way RM ANOVA plus post hoc Tukey’s multiple comparisons or paired t-test).
# Measurements were performed in cardiac SR microsomes (guinea pig) and in whole tissue homogenates (rat). Cardiac preparations included SERCA2a and PLN. To test for PLN involvement in the effect of compounds, SERCA1 activity was measured in PLN-free microsomes (from guinea pig skeletal muscle) before and after reconstitution with the synthetic PLN1–32 inhibitory fragment at a ratio of 300:1 for PLN/SERCA. […] Either an increase in Vmax (rat) or a decrease in KdCa (increased Ca^2+ affinity) (guinea pig) stands for enhancement of SERCA function. […]
# Left ventricles (LV) were dissected from rat and guinea -pig of healthy and failing preparations and frozen until use. Tissues were homogenized, subjected to centrifugation to obtain SR -enriched microsomes and sarcomeric proteins were extracted, as previously described 4.
# (§1) In the case of guinea-pig hearts, LV tissues were homogenized in 4 volumes of 10 mM NaHCO3, 1 mM PMSF, 10 μg/ml aprotinin and leupeptin (pH 7) and centrifuged at 12,000g for 15 minutes. Supernatants were filtered and centrifuged at 100,000 g for 30 min. Contractile proteins were extracted by suspending the pellets with 0.6 M KCl, 30 mM histidine, pH 7 and further centrifugation at 100,000 g for 30 min.
# (§2) Final pellets were reconstituted with 0.3 M sucrose, 30 mM histidine, pH 7, to obtain SR-enriched […]
# SERCA2a ATPase activity was measured as the rate of 32P-ATP release at multiple Ca2+ concentrations (100-2000 nM) in the absence and presence of tested compounds, as previously described5. Increasing concentrations of each compound were pre-incubated with 2 μg of cardiac preparations for 5 min at 4° C in 80 μl of a solution containing 100 mM KCl, 5 mM MgCl2, 1 μM A23187, 20 mM Tris, pH 7.5. Then, 20 μl of 5 mM Tris-ATP containing 50 nCi of 32P-ATP (3-10 Ci/mmol, Perkin Elmer) were added. The ATP hydrolysis was continued for 15 min at 37°C and the reaction was stopped by acidification with 100 μl of 20% ice-cold perchloric acid. 32P was separated by centrifugation with activated charcoal (Norit A, Serva) and the radioactivity was measured. SERCA2a-dependent ATPase activity was identified as the portion of total hydrolytic activity inhibited by cyclopiazonic acid (CPA, 10 µM). Technical replicates were used to ensure the reliability of single values. […]
# [2] = target: skeletal SERCA1 (sarcoplasmic reticulum calcium ATPase 1) (guinea pig (endogenous in skeletal muscle))
# [3] = target: T1, Na^+/K^+ ATPase-alpha1 isoform purified from dog kidneys; set-up: method as in PMID 36153005; conditions: cited from earlier work
# Albino Swiss CD-1 mice = system: Albino Swiss CD-1 mice; set-up: method as in PMID 36153005; conditions: i.v. administration; cited from earlier work
# [4] = cited from earlier work
# [5] = Acute toxicity (LD50) in mice; conditions: male, Albino Swiss CD-1, mouse, in vivo, po
# Protocol: Acute toxicity (LD50) was preliminarily evaluated in mice following i.v. and oral drug administration.
# Control animals received the vehicle only.
# Drug toxicity studies in mice
# Acute toxicity was determined in CD1 mice. Separate mice groups were either orally treated, or
# intravenously injected, with increasing doses of the tested substance to identify the dose causing 50%
# mortality (LD50). Acute mortality was assessed at 30 min after compound administration; survival was
# [6] = system: SERCA1 reconstituted with PLN1–32 fragment; experiment: SERCA1 ATPase activity after reconstitution with PLN1-32 fragment; type: biochemical, guinea pig; conditions: PLN/SERCA 300:1
# Protocol: Data are the mean ± SEM. *p < 0.05 (one-way RM ANOVA plus post hoc Tukey’s multiple comparisons or paired t-test).
# Measurements were performed in cardiac SR microsomes (guinea pig) and in whole tissue homogenates (rat). Cardiac preparations included SERCA2a and PLN. To test for PLN involvement in the effect of compounds, SERCA1 activity was measured in PLN-free microsomes (from guinea pig skeletal muscle) before and after reconstitution with the synthetic PLN1–32 inhibitory fragment at a ratio of 300:1 for PLN/SERCA. […] Either an increase in Vmax (rat) or a decrease in KdCa (increased Ca^2+ affinity) (guinea pig) stands for enhancement of SERCA function.
# (rats). As verified by Western blot, cardiac microsomes preparations included SERCA2a and PLN and skeletal muscle ones included SERCA1 only.
# SERCA stimulation4, compounds were also tested on SERCA1 in microsomes of guinea-pig skeletal muscle (PLN-free) before and after reconstitution with the PLN1-32 inhibitory fragment at a ratio of 300:1 […]
# Tissues were homogenized, subjected to centrifugation to obtain SR -enriched microsomes and sarcomeric proteins were extracted, as previously described 4.
# as §1, §2
# SERCA2a ATPase activity was measured as the rate of 32P-ATP release at multiple Ca2+ concentrations (100-2000 nM) in the absence and presence of tested compounds, as previously described5. Increasing concentrations of each compound were pre-incubated with 2 μg of cardiac preparations for 5 min at 4° C in 80 μl of a solution containing 100 mM KCl, 5 mM MgCl2, 1 μM A23187, 20 mM Tris, pH 7.5. Then, 20 μl of 5 mM Tris-ATP containing 50 nCi of 32P-ATP (3-10 Ci/mmol, Perkin Elmer) were added. The ATP hydrolysis was continued for 15 min at 37°C and the reaction was stopped by acidification with 100 μl of 20% ice-cold perchloric acid. 32P was separated by centrifugation with activated charcoal (Norit A, Serva) and the radioactivity was measured. SERCA2a-dependent ATPase activity was identified as the portion of total hydrolytic activity inhibited by cyclopiazonic acid (CPA, 10 µM). Technical replicates were used to ensure the reliability of single values.
# Reconstitution of SERCA1 with PLN1-32 synthetic fragment
# Adult healthy male guinea-pigs were used to prepare SERCA1-enriched SR microsomes from fast-twitch hind leg muscles. Microsomes were prepared as described for SERCA2a preparations. For reconstitution experiments, SERCA1 (PLN-free) was pre-incubated with synthetic PLN1-32 fragment (canine sequence, Biomatik Corporation, Canada) in 20 mM imidazole, pH 7, at 1:300 SERCA1:PLN ratio for 30 min at room temperature. After pre-incubation, SERCA1 (PLN-free) alone, or reconstituted with PLN1-32 […]
# fragment, was utilized for SERCA activity measurement by using 32P-ATP hydrolysis method at different
# STZ diabetic rats = system: STZ diabetic rats; set-up: method as in PMID 36153005; conditions: cited from earlier work
# [7] = read-out: NKA Inhibition (IC50 µM)
compound,measurement,setting,value
C[C@]12CC/C(=C/CCC(=O)O)C[C@@H]1[C@H](O)C[C@@H]1[C@@H]2CC[C@]2(C)C(=O)CC[C@@H]12 [Compound 4],IC50,[1],> 100 µM
same,SERCA2a–Ca2+ affinity (KdCa) modulation (words),SERCA2a,inactive
CCOC(=O)CCCCC[C@H]1CC[C@@]2(C)[C@H](C1)[C@@H](O)C[C@@H]1[C@@H]2CC[C@]2(C)C(=O)CC[C@@H]12 [Compound 12],IC50,[1]; [7],> 100 µM
same,SERCA2a–Ca2+ affinity (KdCa) modulation (words),SERCA2a,slightly less active
C[C@]12CC[C@H](CC(=O)O)C[C@@H]1[C@H](O)C[C@@H]1[C@@H]2CC[C@]2(C)C(=O)CC[C@@H]12 [Compound 9],SERCA2a–Ca2+ affinity (KdCa) modulation (words),SERCA2a,inactive
synthetic PLN(1-32) inhibitory fragment of phospholamban (from UniProt P26678 1-32) (peptide),"increase of KdCa (Ca2+ dependency of SERCA1 ATPase activity, 32P-ATP, 37 °C) after reconstitution of skeletal muscle microsomes with PLN(1-32) at 300:1 PLN/SERCA; Vmax not affected",[2],23 to 25%
C[C@]12CCC(=NOCCN)C[C@@H]1C(=O)C[C@@H]1[C@@H]2CC[C@]2(C)C(=O)CC[C@@H]12 (mixture of isomers) [istaroxime],IC50,[3]; dog renal preparations,140 nM
same,LD50,Albino Swiss CD-1 mice,23 mg/kg
same,half-life,[4],~1 h
same,LD50 at 24 h,[5],200 mg/kg
C[C@]12CC/C(=C\CCC(=O)O)C[C@@H]1[C@H](O)C[C@@H]1[C@@H]2CC[C@]2(C)C(=O)CC[C@@H]12 [Compound 3],SERCA2a–Ca2+ affinity (KdCa) modulation (words),SERCA2a,inactive
same,SERCA2a–Ca2+ affinity (KdCa) modulation (words),SERCA2a; listed as compound 3,only a trend to SERCA2a KdCa reduction
CCOC(=O)CCC[C@H]1CC[C@@]2(C)[C@H](C1)[C@@H](O)C[C@@H]1[C@@H]2CC[C@]2(C)C(=O)CC[C@@H]12 [Compound 7],IC50,[1]; [7],> 100 µM
same,SERCA2a Stimulation @100 nM (DELTA% KdCa),SERCA2a; 100 nM,-23%
"PLN1–32 fragment: synthetic PLN1-32 inhibitory fragment of phospholamban (canine sequence, Biomatik) (MEKVQYLTRSAIRRASTIEMPQQARQKLQNLF) [reference compound]",SERCA1 KdCa increased by (reconstitution with PLN1–32),[6],23–25%
C[C@]12CC[C@H](CCCC(=O)O)C[C@@H]1[C@H](O)C[C@@H]1[C@@H]2CC[C@]2(C)C(=O)CC[C@@H]12 [Compound 6],IC50,[1],> 100 µM
same,SERCA2a Stimulation @100 nM (DELTA% KdCa),SERCA2a; 100 nM,-23%
"C[C@]12CC/C(=N\OCC(=O)O)C[C@@H]1[C@H](O)C[C@@H]1[C@@H]2CC[C@]2(C)C(=O)CC[C@@H]12 [PST3093, reference compound]",SERCA2a KdCa reduced by,SERCA2a; 1 nM,18%
same,SERCA2a KdCa change,"SERCA2a; 100 nM, guinea pig microsomal preparations",−25%
same,SERCA2a KdCa reduced by,"SERCA2a; 100 nM, guinea pig preparation",25%
same,activity against Na+/K+ ATPase,[3],inactive
same,systolic indexes,STZ diabetic rats,improved systolic indexes
same,half-life,[4],~10 h
same,LD50 at 24 h,[5],> 200 mg/kg
C[C@]12CC/C(=C/CCC(=O)O)C[C@@H]1[C@@H](O)C[C@@H]1[C@@H]2CC[C@]2(C)C(=O)CC[C@@H]12 [Compound 2],IC50,[1],> 100 µM
same,SERCA2a–Ca2+ affinity (KdCa) modulation (words),SERCA2a,inactive
CCOC(=O)C[C@H]1CC[C@@]2(C)[C@H](C1)[C@@H](O)C[C@@H]1[C@@H]2CC[C@]2(C)C(=O)CC[C@@H]12 [Compound 10],IC50,[1],> 100 µM
same,SERCA2a Stimulation @100 nM (DELTA% KdCa),SERCA2a; 100 nM,-26%
C[C@]12CC[C@H](CCCCCC(=O)O)C[C@@H]1[C@@H](O)C[C@@H]1[C@@H]2CC[C@]2(C)C(=O)CC[C@@H]12 [Compound 11],IC50,[1]; [7],> 100 µM
same,SERCA2a Stimulation @100 nM (DELTA% KdCa),SERCA2a; 100 nM,-20%
same,SERCA2a–Ca2+ affinity (KdCa) modulation (words),SERCA2a,slightly less active
C[C@]12CC/C(=C\CCC(=O)O)C[C@@H]1[C@@H](O)C[C@@H]1[C@@H]2CC[C@]2(C)C(=O)CC[C@@H]12 [Compound 1],IC50,[1],> 100 µM
same,SERCA2a Stimulation @100 nM (DELTA% KdCa),SERCA2a; 100 nM,-15%
same,SERCA2a KdCa reduced by,"SERCA2a; 100 nM, guinea pig preparation",15%
